Measurements reported in patent US20240269139A1, “COMPOUNDS FOR TARGETED PROTEIN DEGRADATION OF KINASES” (DANA-FARBER CANCER INSTITUTE, INC., priority 2020, published 2024).
Where two headings read alike, the source gives them in different places.

Experiments:
[1] = target: T1, extended human kinome (kinase-like proteins) (Homo sapiens, UniProt Q7L8L6); experiment: Whole cell quantitative proteomics: extended kinome hits; conditions: Accession Q7L8L6
T1 sequence (Q7L8L6 28-764): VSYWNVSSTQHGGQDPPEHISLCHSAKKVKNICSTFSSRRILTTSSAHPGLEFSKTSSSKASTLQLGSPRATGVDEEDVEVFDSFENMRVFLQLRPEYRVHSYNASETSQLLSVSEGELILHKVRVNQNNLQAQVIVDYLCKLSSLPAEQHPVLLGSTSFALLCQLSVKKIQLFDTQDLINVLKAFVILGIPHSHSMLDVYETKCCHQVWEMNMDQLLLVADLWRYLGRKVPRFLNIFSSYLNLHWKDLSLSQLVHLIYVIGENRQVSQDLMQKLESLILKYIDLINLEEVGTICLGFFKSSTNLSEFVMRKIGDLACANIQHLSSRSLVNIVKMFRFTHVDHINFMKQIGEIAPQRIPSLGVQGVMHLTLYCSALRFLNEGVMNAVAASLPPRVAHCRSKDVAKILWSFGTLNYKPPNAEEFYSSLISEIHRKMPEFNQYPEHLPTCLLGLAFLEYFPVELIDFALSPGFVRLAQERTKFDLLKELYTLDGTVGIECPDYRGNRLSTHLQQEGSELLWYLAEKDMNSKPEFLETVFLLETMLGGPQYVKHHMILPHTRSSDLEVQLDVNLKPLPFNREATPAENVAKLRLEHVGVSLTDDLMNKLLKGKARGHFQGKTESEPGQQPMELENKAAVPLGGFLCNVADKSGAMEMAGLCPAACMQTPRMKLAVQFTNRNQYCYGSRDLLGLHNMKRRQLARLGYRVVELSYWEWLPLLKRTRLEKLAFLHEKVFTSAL

[2] = target: extended human kinome (kinase-like proteins) (Homo sapiens, UniProt Q9UIJ7); experiment: as above
Sequence of extended human kinome (kinase-like proteins) (Homo sapiens, UniProt Q9UIJ7) (Q9UIJ7 whole entry): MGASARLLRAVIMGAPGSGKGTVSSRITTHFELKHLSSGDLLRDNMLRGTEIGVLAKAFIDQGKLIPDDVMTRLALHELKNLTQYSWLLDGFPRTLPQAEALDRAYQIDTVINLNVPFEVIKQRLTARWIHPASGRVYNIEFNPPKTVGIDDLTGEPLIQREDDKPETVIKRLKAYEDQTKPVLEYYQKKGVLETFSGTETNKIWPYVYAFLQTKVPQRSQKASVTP

[3] = target: protein kinases (human kinome) (Homo sapiens, UniProt P51812); format: cell-based; conditions: RPS6KA3 (P51812), experiment wp076
Sequence of protein kinases (human kinome) (Homo sapiens, UniProt P51812) (P51812 whole entry): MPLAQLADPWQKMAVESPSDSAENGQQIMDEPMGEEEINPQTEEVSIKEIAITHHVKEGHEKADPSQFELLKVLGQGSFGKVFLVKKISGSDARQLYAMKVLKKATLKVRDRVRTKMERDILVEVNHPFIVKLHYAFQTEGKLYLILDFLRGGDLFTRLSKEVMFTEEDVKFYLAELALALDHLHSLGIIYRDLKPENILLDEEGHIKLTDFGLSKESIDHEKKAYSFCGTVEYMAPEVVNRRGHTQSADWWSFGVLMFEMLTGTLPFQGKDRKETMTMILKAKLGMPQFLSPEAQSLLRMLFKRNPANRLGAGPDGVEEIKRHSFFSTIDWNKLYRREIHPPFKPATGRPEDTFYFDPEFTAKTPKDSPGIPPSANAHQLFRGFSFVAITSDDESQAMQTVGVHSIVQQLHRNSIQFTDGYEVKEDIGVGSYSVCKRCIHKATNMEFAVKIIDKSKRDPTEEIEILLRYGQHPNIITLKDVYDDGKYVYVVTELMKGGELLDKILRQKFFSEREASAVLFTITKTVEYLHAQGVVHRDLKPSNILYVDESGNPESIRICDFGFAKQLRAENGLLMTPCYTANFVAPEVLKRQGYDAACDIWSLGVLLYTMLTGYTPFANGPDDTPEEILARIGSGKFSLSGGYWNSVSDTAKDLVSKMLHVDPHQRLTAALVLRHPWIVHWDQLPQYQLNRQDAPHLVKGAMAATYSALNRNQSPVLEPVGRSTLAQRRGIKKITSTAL

[4] = target: protein kinases (human kinome) (Homo sapiens, UniProt Q13233); format: cell-based
Sequence of protein kinases (human kinome) (Homo sapiens, UniProt Q13233) (Q13233 whole entry): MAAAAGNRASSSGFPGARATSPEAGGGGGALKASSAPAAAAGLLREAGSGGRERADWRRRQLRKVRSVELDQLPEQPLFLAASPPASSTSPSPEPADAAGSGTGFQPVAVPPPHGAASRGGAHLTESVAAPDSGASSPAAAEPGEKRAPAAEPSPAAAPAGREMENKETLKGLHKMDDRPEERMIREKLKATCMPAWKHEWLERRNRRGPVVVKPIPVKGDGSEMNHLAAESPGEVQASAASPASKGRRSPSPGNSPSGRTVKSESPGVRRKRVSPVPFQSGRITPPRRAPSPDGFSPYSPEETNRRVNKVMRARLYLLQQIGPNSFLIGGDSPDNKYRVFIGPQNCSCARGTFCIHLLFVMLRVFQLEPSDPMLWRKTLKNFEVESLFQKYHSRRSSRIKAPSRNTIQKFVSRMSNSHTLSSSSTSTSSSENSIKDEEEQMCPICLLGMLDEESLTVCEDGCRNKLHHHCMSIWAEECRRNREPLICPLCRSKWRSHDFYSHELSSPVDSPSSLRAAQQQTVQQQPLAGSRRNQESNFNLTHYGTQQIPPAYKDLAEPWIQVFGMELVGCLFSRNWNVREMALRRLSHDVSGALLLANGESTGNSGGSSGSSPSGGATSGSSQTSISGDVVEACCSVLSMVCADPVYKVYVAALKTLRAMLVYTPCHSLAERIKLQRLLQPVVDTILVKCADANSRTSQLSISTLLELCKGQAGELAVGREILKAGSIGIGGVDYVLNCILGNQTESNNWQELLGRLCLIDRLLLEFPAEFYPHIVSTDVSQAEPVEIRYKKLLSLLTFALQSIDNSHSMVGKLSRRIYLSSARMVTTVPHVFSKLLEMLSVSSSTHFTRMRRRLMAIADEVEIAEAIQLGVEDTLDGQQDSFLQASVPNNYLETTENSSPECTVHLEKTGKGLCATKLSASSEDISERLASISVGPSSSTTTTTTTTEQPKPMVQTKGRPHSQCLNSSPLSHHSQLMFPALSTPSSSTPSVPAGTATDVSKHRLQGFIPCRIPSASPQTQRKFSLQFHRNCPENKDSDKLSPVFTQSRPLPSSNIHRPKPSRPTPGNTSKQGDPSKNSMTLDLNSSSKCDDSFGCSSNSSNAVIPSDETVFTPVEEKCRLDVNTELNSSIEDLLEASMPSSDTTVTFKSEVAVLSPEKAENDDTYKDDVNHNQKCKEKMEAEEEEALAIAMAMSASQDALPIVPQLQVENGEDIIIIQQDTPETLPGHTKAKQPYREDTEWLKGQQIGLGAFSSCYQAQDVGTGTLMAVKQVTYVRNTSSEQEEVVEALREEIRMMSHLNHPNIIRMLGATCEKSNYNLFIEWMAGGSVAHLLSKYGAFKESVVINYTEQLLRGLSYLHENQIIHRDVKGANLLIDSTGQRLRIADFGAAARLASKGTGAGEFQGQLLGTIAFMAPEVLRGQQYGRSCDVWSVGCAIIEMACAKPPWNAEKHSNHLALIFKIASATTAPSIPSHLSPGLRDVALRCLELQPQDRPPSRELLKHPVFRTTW

[5] = target: T2, protein kinases (human kinome) (Homo sapiens, UniProt Q96L34); format: cell-based; conditions: for logFC MARK4: Accession Q96L34-1
T2 sequence (Q96L34 1-752): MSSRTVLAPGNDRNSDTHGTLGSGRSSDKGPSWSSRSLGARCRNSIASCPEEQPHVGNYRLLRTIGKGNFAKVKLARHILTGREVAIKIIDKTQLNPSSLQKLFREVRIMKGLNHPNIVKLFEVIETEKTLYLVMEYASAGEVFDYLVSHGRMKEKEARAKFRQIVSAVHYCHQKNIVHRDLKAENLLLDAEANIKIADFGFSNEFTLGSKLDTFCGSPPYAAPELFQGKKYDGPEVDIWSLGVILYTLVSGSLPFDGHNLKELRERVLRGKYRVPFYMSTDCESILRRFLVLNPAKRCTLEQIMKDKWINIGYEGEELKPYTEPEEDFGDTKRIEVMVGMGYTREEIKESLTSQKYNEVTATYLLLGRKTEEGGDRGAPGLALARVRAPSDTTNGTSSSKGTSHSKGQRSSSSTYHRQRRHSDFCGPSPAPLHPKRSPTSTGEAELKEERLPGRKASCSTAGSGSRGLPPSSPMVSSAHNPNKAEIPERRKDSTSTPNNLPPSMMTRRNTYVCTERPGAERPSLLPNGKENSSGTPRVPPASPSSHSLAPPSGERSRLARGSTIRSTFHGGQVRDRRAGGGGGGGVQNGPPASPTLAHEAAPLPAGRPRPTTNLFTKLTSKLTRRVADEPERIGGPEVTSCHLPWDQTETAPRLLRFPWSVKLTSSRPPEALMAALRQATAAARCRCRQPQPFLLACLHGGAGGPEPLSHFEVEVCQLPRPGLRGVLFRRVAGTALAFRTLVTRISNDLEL

[6] = target: extended human kinome (kinase-like proteins) (Homo sapiens, UniProt Q16875); experiment: Whole cell quantitative proteomics: extended kinome hits; conditions: Accession Q16875
Sequence of extended human kinome (kinase-like proteins) (Homo sapiens, UniProt Q16875) (Q16875 whole entry): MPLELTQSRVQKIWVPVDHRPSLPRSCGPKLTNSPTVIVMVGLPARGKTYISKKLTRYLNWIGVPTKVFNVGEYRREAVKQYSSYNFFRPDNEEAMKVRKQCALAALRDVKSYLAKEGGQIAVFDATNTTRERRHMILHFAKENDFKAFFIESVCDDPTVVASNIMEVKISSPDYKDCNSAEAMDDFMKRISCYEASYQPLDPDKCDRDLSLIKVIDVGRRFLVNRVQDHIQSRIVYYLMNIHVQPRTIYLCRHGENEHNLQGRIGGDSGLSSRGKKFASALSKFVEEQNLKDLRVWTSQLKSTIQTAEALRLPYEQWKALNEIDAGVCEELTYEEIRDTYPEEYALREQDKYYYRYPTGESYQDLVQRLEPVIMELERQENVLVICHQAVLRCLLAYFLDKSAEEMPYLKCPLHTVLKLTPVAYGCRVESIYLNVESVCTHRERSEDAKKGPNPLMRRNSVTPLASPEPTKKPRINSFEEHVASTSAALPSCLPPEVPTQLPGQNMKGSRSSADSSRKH

[7] = target: protein kinases (human kinome) (Homo sapiens, UniProt Q8TDR2); format: cell-based
Sequence of protein kinases (human kinome) (Homo sapiens, UniProt Q8TDR2) (Q8TDR2 whole entry): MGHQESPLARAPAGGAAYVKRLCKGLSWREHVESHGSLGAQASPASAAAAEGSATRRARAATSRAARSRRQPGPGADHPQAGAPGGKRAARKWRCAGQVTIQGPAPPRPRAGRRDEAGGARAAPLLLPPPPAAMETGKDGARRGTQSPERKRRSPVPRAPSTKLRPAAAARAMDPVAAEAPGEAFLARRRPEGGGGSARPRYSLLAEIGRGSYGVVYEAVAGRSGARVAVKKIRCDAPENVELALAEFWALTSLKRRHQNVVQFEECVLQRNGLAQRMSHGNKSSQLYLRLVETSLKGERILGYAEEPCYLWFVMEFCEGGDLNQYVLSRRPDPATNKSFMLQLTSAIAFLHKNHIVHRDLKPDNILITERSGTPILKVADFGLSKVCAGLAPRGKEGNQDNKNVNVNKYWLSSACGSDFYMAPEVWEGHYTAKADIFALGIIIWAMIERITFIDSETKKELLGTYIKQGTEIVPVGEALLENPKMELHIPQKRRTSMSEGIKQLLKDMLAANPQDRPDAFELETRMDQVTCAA

CC(=O)c1c(C)c2cnc(Nc3ccc(N4CCN(CCOCCOCCOCCNC(=O)COc5cccc6c5C(=O)N(C5CCC(=O)NC5=O)C6=O)CC4)cn3)nc2n(C2CCCC2)c1=O (centres unmarked) [BSJ.03.123]
logFC FASTKD5 ([1]; experiment wp084): −0.5926 | logFC AK3 (Q9UIJ7-1) ([2]; experiment wp084): −0.4577

CN(C)C(=O)c1cc2cnc(Nc3ccc(N4CCN(CCCCNC(=O)COc5cccc6c5C(=O)N(C5CCC(=O)NC5=O)C6=O)CC4)cn3)nc2n1C1CCCC1 (centres unmarked) [BSJ.04.132]
logFC FASTKD5 ([1]; experiment wp084): −0.7073 | logFC AK3 (Q9UIJ7-1) ([2]; experiment wp084): −0.6124

CC(C)(C)c1nc(-c2cccc(NS(=O)(=O)c3c(F)cccc3F)c2F)c(-c2ccnc(NCCOCCNC(=O)CCOCCOCCNc3cccc4c3C(=O)N(C3CCC(=O)NC3=O)C4=O)n2)s1 (centres unmarked) [DD.03.106]
logFC FASTKD5 ([1]; experiment wp147, 4 uM): −0.8688 | logFC AK3 (Q9UIJ7-1) ([2]; experiment wp147, 4 uM): −0.7202

CC(C)(C)c1nc(-c2cccc(NS(=O)(=O)c3c(F)cccc3F)c2F)c(-c2ccnc(NCCOCCNC(=O)CCOCCOCCNc3cccc4c3CN(C3CCC(=O)NC3=O)C4=O)n2)s1 (centres unmarked) [DD.03.107]
logFC FASTKD5 ([1]; experiment wp147, 1 uM): −0.5985 | logFC FASTKD5 ([1]; experiment wp147, 2 uM): −0.6839 | logFC FASTKD5 ([1]; experiment wp147, 4 uM): −1.268 | logFC AK3 (Q9UIJ7-1) ([2]; experiment wp147, 1 uM): −0.5265 | logFC AK3 (Q9UIJ7-1) ([2]; experiment wp147, 2 uM): −0.5607 | logFC AK3 (Q9UIJ7-1) ([2]; experiment wp147, 4 uM): −1.001

O=C(COc1cccc2c1C(=O)N(C1CCC(=O)NC1=O)C2=O)NCCCCCCCC(=O)NC1(c2ccc(-c3nc4ccn5c(=O)[nH]nc5c4cc3-c3ccccc3)cc2)CCC1 (centres unmarked) [INY.01.140.1]
logFC FASTKD5 ([1]; experiment wp081): −0.4182 | logFC AK3 (Q9UIJ7-1) ([2]; experiment wp081): −0.4102

Cc1cnc(Nc2ccc(N3CCN(CCOCCOCCNC(=O)COc4cccc5c4C(=O)N(C4CCC(=O)NC4=O)C5=O)CC3)cc2)nc1Nc1cccc(S(=O)(=O)NC(C)(C)C)c1 (centres unmarked) [JWG.118]
logFC AK3 (Q9UIJ7-1) ([2]; experiment wp071): −0.4221

CNC(=O)c1ccccc1Nc1cc(Nc2ccc(N3CCN(CCOCCOCCNC(=O)CNc4cccc5c4C(=O)N(C4CCC(=O)NC4=O)C5=O)CC3)cc2OC)ncc1C(F)(F)F (centres unmarked) [MFH.5.103.1]
logFC [3]: −1.165 | logFC ([3]; direction down): −1.165 | logFC FASTKD5 ([1]; experiment wp076): −0.3493 | logFC AK3 (Q9UIJ7-1) ([2]; experiment wp076): −0.431

Cc1ccc(C(=O)Nc2ccc(CN3CCN(CCCOCCOCCOCCNC(=O)COc4cccc5c4C(=O)N(C4CCC(=O)NC4=O)C5=O)CC3)c(C(F)(F)F)c2)cc1C#Cc1cnc2cccnn12 (centres unmarked) [SB1.G.187]
logFC MAP3K1 ([4]; Accession Q13233, experiment wp056, direction down): −0.7809 | logFC MAP3K1 ([4]; Accession Q13233, experiment wp103, direction down): −0.5815 | logFC MAP3K1 ([4]; Accession Q13233, experiment wp107, direction down): −0.6693 | logFC MAP3K1 ([4]; MAP3K1 (Q13233), experiment wp056): −0.7809 | logFC MAP3K1 ([4]; MAP3K1 (Q13233), experiment wp103): −0.5815 | logFC MAP3K1 ([4]; MAP3K1 (Q13233), experiment wp107): −0.6693 | logFC FASTKD5 ([1]; experiment wp056): −0.4238

CC(C)S(=O)(=O)c1ccccc1Nc1nc(Nc2ccc(N3CCN(CCOCCNC(=O)CNc4cccc5c4C(=O)N(C4CCC(=O)NC4=O)C5=O)CC3)cc2)ncc1Cl (centres unmarked) [SK.3.91]
logFC MAP3K1 ([4]; Accession Q13233, experiment wp105, direction down): −0.3258 | logFC MAP3K1 ([4]; MAP3K1 (Q13233), experiment wp105): −0.3258 | logFC MARK4 ([5]; experiment wp103): −1.326 | logFC MARK4 ([5]; experiment wp107): −1.292 | logFC MARK4 ([5]; experiment wp114): −1.3 | logFC MARK4 ([5]; experiment wp133, 2 hr): −0.6282 | logFC MARK4 ([5]; experiment wp133, 4 hr): −1.537 | logFC MARK4 ([5]; experiment wp160, 4 hr): −1.529 | logFC MARK4 (Q96L34-1) ([5]; experiment wp103): −1.326 | logFC MARK4 (Q96L34-1) ([5]; experiment wp107): −1.292 | logFC MARK4 (Q96L34-1) ([5]; experiment wp114): −1.3 | logFC MARK4 (Q96L34-1) ([5]; experiment wp133, 2 hr): −0.6282 | logFC MARK4 (Q96L34-1) ([5]; experiment wp133, 4 hr): −1.537 | logFC MARK4 (Q96L34-1) ([5]; experiment wp160, 4 hr): −1.529 | logFC PFKFB3 ([6]; experiment wp133, 2 hr): −0.3539 | logFC PFKFB3 ([6]; experiment wp133, 4 hr): −0.6035 | logFC FASTKD5 ([1]; experiment wp160, 1 hr): −0.8306 | logFC AK3 (Q9UIJ7-1) ([2]; experiment wp160, 1 hr): −0.7434

CC(C)S(=O)(=O)c1ccccc1Nc1nc(Nc2ccc(N3CCN(CCOCCOCCNC(=O)CNc4cccc5c4C(=O)N(C4CCC(=O)NC4=O)C5=O)CC3)cc2)ncc1Cl (centres unmarked) [TL12.186]
logFC STK35 ([7]; Accession Q8TDR2, experiment wp131, direction down): −0.4135 | logFC STK35 ([7]; Accession Q8TDR2, experiment wp137, direction down): −0.4079 | logFC STK35 ([7]; STK35 (Q8TDR2), experiment wp131): −0.4135 | logFC STK35 ([7]; STK35 (Q8TDR2), experiment wp137): −0.4079 | logFC MARK4 ([5]; experiment wp137): −1.298 | logFC MARK4 (Q96L34-1) ([5]; experiment wp131): −1.829 | logFC MARK4 (Q96L34-1) ([5]; experiment wp137): −1.298 | logFC PFKFB3 ([6]; experiment wp131): −0.5643 | logFC PFKFB3 ([6]; experiment wp137): −0.4067 | logFC FASTKD5 ([1]; experiment wp137): −0.3409

C=CCn1c(=O)c2cnc(Nc3ccc(N4CCN(CCCNc5cccc6c5C(=O)N(C5CCC(=O)NC5=O)C6=O)CC4)cc3)nc2n1-c1cccc(C(C)(C)O)n1 (centres unmarked) [ZNL.02.096]
logFC PFKFB3 ([6]; experiment wp118): −0.4051 | logFC FASTKD5 ([1]; experiment wp118): −0.4552
